From patent US11667651B2, “Aminopyridine derivatives as phosphatidylinositol phosphate kinase inhibitors” (HiberCell, Inc., priority 2017, dated 2023) come the findings set out here.

Holding throughout (type): biochemical
One test addresses T1, PIP4K2B (Homo sapiens, UniProt P78356).
T1 construct: made in house; host or cells: E. coli
T1 sequence (P78356 1-416): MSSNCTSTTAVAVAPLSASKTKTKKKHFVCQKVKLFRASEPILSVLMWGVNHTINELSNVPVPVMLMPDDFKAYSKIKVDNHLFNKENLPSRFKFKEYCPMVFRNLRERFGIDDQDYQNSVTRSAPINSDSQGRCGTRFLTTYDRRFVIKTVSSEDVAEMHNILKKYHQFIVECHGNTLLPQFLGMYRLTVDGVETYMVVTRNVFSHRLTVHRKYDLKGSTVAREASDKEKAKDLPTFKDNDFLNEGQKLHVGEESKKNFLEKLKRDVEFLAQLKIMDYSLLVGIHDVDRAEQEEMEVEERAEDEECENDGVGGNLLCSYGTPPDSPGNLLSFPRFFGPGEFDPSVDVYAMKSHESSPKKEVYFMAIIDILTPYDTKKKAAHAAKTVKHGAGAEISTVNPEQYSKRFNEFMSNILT
Nature of the test: Trans-FI P kinase assay PIP4K2B (Table 4). The settings on record: compounds listed under IC50 bins; read-out: Trans-FI P kinase assays: PIP4K2B IC50. Put shortly:
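Transcreener FI detection (Ex 584/Em 623) of GDP, converted via calibration curve, gives IC50 from residual activity versus log concentration (highest 4.8 μM). Reaction: 80 μM PI5P plus DOPE carrier, 100 μM GTP, 5 nM GST-tagged enzyme, pH 7.3 HEPES with MgCl2 and 5% DMSO, 2 h after 1 h enzyme-compound preincubation at 27° C.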

The target in test [1] is T2, PIP4K2A (Homo sapiens, UniProt P48426).
T2 sequence (P48426 1-406): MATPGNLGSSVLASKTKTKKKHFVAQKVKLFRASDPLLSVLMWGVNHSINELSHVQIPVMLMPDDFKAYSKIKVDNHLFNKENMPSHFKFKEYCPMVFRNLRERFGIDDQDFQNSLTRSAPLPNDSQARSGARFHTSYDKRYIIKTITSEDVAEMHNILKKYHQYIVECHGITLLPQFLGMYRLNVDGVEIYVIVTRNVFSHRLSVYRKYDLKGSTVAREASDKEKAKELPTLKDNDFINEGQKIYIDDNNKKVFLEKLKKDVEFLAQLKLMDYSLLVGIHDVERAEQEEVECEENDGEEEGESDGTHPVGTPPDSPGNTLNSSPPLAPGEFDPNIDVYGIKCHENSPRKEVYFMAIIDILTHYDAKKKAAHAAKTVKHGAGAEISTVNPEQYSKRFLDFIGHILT
Nature of the test: ADP-glo kinase assay PIP4K 2A (Table 3). Further details: made in house; host or cells: E. coli. Particulars: compounds listed under IC50 bins. The method, boiled down: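 Full-length PIP4K2A (4 nM in the mix) with 100 μM PI(5)P diC8 pre-incubated 15 min with compound in MOPS pH 7.2, 25 mM MgCl2; ATP added (60 μM solution), 1 h at RT. ADP formed read by ADP-Glo luminescence; 10-point curves versus DMSO controls fitted to IC50.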

The target of test [2] is T2, PIP4K2A. In words: Kinase Assay PIP4K2 A (Table 2). The arrangement: 4 nM PIP4K2A (full length protein, SignalChem); purchased SignalChem. Particulars: compounds listed under IC50 bins. The method, boiled down: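 Full-length PIP4K2A (4 nM in the added mix, with 100 μM PI(5)P diC8) pre-incubated 15 min at RT with compounds (10-point, 3-fold series) in 20 mM MOPS pH 7.2, 25 mM MgCl2, 0.005% Tween 20. ATP added from a 60 μM solution, 1 h at RT; ADP-Glo luminescence, IC50 fitted from % inhibition versus DMSO.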

Where only a bound is given, the exact number is not on record here.

On to `O=C(c1cccc2ncc(Nc3ccc(-c4ccc(N5CCCC5=O)cc4)cn3)cc12)N1CCC(O)C1` (stereo not drawn) [Example 149, 1-(4-(6-((5-(3-hydroxypyrrolidine-1-carbonyl)quinolin-3-yl)amino)pyridin-3-yl)phenyl)pyrrolidin-2-one], for which the half-inhibitory concentration (IC50) on PIP4K2B was > 1000 nM; against PIP4K2A [1], > 1000 nM; against PIP4K2A [2] it was 100 to 1000 nM.
On to `CC(C)(C)C(=O)N1CCOc2ncc(Nc3ccc(-c4ccc(N5CCCC5=O)cc4)cn3)cc21` [Example 155, 1-(4-(6-((1-pivaloyl-2,3-dihydro-1H-pyrido[2,3-b][1,4]oxazin-7-yl)amino)pyridin-3-yl)phenyl)pyrrolidin-2-one], for which the IC50 at PIP4K2B was 10 to 100 nM; against PIP4K2A [1], 1 to 10 nM; at PIP4K2A [2], 1 to 10 nM.
Consider `CN(C)C(=O)c1ccc(-c2ccc(Nc3cnc4c(c3)N(C(=O)c3ccccc3)CCO4)nc2)cc1` [Example 94, 4-(6-((1-benzoyl-2,3-dihydro-1H-pyrido[2,3-b][1,4]oxazin-7-yl)amino)pyridin-3-yl)-N,N-dimethylbenzamide], for which the IC50 was 10 to 100 nM at PIP4K2B, 10 to 100 nM against PIP4K2A [1] and 1 to 10 nM against PIP4K2A [2].
On to `CN(C)C(=O)c1ccc(-c2ccc(Nc3cncc(NC(=O)c4cccc(NC(=O)OC(C)(C)C)c4)c3)nc2)cc1` [Example 98, tert-butyl (3-((5-((5-(4-(dimethylcarbamoyl)phenyl)pyridin-2-yl)amino)pyridin-3-yl)carbamoyl)phenyl)carbamate], for which the figures for the IC50 at PIP4K2B, on PIP4K2A [1] and on PIP4K2A [2] were 10 to 100 nM, 100 to 1000 nM and 10 to 100 nM, respectively.
Take `CN(C)C(=O)c1ccc(-c2ccc(Nc3ccc(CNC(=O)c4cccc(NC(=O)OC(C)(C)C)c4)nc3)nc2)cc1` [Example 104, tert-butyl (3-(((5-((5-(4-(dimethylcarbamoyl)phenyl)pyridin-2-yl)amino)pyridin-2-yl)methyl)carbamoyl)phenyl)carbamate]: the IC50 is > 1000 nM on PIP4K2B, > 1000 nM on PIP4K2A [1] and 100 to 1000 nM against PIP4K2A [2].
With `CC(C)c1cc(Nc2cnc3c(c2)N2C(=O)CC[C@H]2CO3)ncc1-c1ccc(N2CCCC2=O)cc1` [Example 177, (S)-2-((4-isopropyl-5-(4-(2-oxopyrrolidin-1-yl)phenyl)pyridin-2-yl)amino)-6,6a,7,8-tetrahydro-9H-pyrido[2,3-b]pyrrolo[1,2-d][1,4]oxazin-9-one], the IC50 is 1 to 10 nM on PIP4K2B, 1 to 10 nM against PIP4K2A [1] and ≤ 1 nM on PIP4K2A [2].
Regarding `Cc1cc(N2CCCC2=O)ccc1-c1ccc(Nc2cnc3c(c2)N2C(=O)CC[C@H]2CO3)nc1` [Example 192, (S)-2-((5-(2-methyl-4-(2-oxopyrrolidin-1-yl)phenyl)pyridin-2-yl)amino)-6,6a,7,8-tetrahydro-9H-pyrido[2,3-b]pyrrolo[1,2-d][1,4]oxazin-9-one], the IC50 at PIP4K2B, against PIP4K2A [1] and against PIP4K2A [2] was 10 to 100 nM each time.
With `O=C1CCCN1c1ccc(-c2cnc(Nc3cncc(N4CCN(Cc5cscn5)C4=O)c3)cn2)cc1` [Example 164, 1-(5-((5-(4-(2-oxopyrrolidin-1-yl)phenyl)pyrazin-2-yl)amino)pyridin-3-yl)-3-(thiazol-4-ylmethyl)imidazolidin-2-one], the values for the IC50 on PIP4K2B, at PIP4K2A [1] and at PIP4K2A [2] were 10 to 100 nM, 1 to 10 nM and 1 to 10 nM, respectively.
Consider `CN(C)C(=O)c1ccc(-c2ccc(Nc3cncc(NC(=O)c4ccnc(N)c4)c3)nc2)cc1` [Example 131, 2-amino-N-(5-((5-(4-(dimethylcarbamoyl)phenyl)pyridin-2-yl)amino)pyridin-3-yl)isonicotinamide], for which the results for the IC50 at PIP4K2B, against PIP4K2A [1] and on PIP4K2A [2] were 10 to 100 nM, 10 to 100 nM and 1 to 10 nM, respectively.
As to `CN(C)C(=O)c1ccc(-c2ccc(Nc3cncc(NC(=O)c4ccncc4)c3)nc2)cc1` [Example 130, N-(5-((5-(4-(dimethylcarbamoyl)phenyl)pyridin-2-yl)amino)pyridin-3-yl)isonicotinamide], the IC50 at PIP4K2B was 10 to 100 nM; against PIP4K2A [1], 100 to 1000 nM; at PIP4K2A [2] it was 10 to 100 nM.
As to `COc1ncc(Nc2ccc(-c3ccc(N4CCCC4=O)cc3)cn2)cc1NS(C)(=O)=O` [Example 159, N-(2-methoxy-5-((5-(4-(2-oxopyrrolidin-1-yl)phenyl)pyridin-2-yl)amino)pyridin-3-yl)methanesulfonamide], the figures for the IC50 on PIP4K2B, against PIP4K2A [1] and against PIP4K2A [2] were 10 to 100 nM, 100 to 1000 nM and 10 to 100 nM, respectively.
On to `CN(C)C/C=C/C(=O)NCC(=O)Nc1ccc(CN2CCN(c3cncc(Nc4ccc(-c5ccc(C(=O)N(C)C)cc5)cn4)c3)C2=O)cc1` [Example 229, (E)-4-(6-((5-(3-(4-(2-(4-(dimethylamino)but-2-enamido)acetamido)benzyl)-2-oxoimidazolidin-1-yl)pyridin-3-yl)amino)pyridin-3-yl)-N,N-dimethylbenzamide], for which the IC50 on PIP4K2B, against PIP4K2A [1] and at PIP4K2A [2] was > 1000 nM each time.
Consider `CC(C)C(=O)N1CCOc2ncc(Nc3ccc(-c4ccc(N5CCCC5=O)cc4)cn3)cc21` [Example 152, 1-(4-(6-((1-isobutyryl-2,3-dihydro-1H-pyrido[2,3-b][1,4]oxazin-7-yl)amino)pyridin-3-yl)phenyl)pyrrolidin-2-one], for which the IC50 at PIP4K2B is 10 to 100 nM; against PIP4K2A [1], 10 to 100 nM; at PIP4K2A [2], 1 to 10 nM.
In the case of `O=C1CCCN1c1ccc(-c2ccc(Nc3cnc4c(c3)N3C(=O)CC[C@H]3CO4)nc2)cc1` [Example 84, (S)-2-((5-(4-(2-oxopyrrolidin-1-yl)phenyl)pyridin-2-yl)amino)-6,6a,7,8-tetrahydro-9H-pyrido[2,3-b]pyrrolo[1,2-d][1,4]oxazin-9-one], the IC50 at PIP4K2B lay in the range of 10 to 100 nM; against PIP4K2A [1] it was 1 to 10 nM; against PIP4K2A [2] it was 1 to 10 nM.
`CN(C)C/C=C/C(=O)Nc1cccc(C(=O)NCc2ccc(Nc3ccc(-c4ccc(C(=O)N(C)C)cc4)cn3)cn2)c1` [Example 106, (E)-4-(6-((6-((3-(4-(dimethylamino)but-2-enamido)benzamido)methyl)pyridin-3-yl)amino)pyridin-3-yl)-N,N-dimethylbenzamide]: the IC50 at PIP4K2B lay within 10 to 100 nM; against PIP4K2A [1], 100 to 1000 nM; against PIP4K2A [2], 100 to 1000 nM.
With `CN(C)C(=O)c1ccc(-c2ccc(Nc3cncc(NC(=O)c4ccc(N)cc4)c3)nc2)cc1` [Example 116, 4-(6-((5-(4-aminobenzamido)pyridin-3-yl)amino)pyridin-3-yl)-N,N-dimethylbenzamide], the half-inhibitory concentration (IC50) on PIP4K2B, against PIP4K2A [1] and on PIP4K2A [2] was 10 to 100 nM in each case.
In the case of `CNC(=O)c1cccc2ncc(Nc3ccc(-c4ccc(N5CCCC5=O)cc4)cn3)cc12` [Example 146, N-methyl-3-((5-(4-(2-oxopyrrolidin-1-yl)phenyl)pyridin-2-yl)amino)quinoline-5-carboxamide], the half-maximal inhibitory concentration (IC50) on PIP4K2B was in the range of 10 to 100 nM; against PIP4K2A [1], 10 to 100 nM; at PIP4K2A [2], 100 to 1000 nM.
`CN(C)C(=O)c1ccc(-c2ccc(Nc3cnc4c(c3)NCCO4)nc2)cc1` [Example 46, 4-(6-((2,3-dihydro-1H-pyrido[2,3-b][1,4]oxazin-7-yl)amino)pyridin-3-yl)-N,N-dimethylbenzamide]: the IC50 is 10 to 100 nM on PIP4K2B, 100 to 1000 nM on PIP4K2A [1] and 10 to 100 nM against PIP4K2A [2].
Take `O=C1CCCN1c1ccc(-c2ccc(Nc3cncc(N4CCN(Cc5cnco5)C4=O)c3)nc2)cc1` [Example 166, 1-(oxazol-5-ylmethyl)-3-(5-((5-(4-(2-oxopyrrolidin-1-yl)phenyl)pyridin-2-yl)amino)pyridin-3-yl)imidazolidin-2-one]: the half-inhibitory concentration (IC50) at PIP4K2B, at PIP4K2A [1] and at PIP4K2A [2] was 10 to 100 nM each time.

The IC50 is the point on the concentration scale where inhibition reaches its midpoint.
